{
  "source": "patent US12383536B2",
  "about": "“CRF receptor antagonists and methods of use” (Neurocrine Biosciences, Inc., priority 2019, dated 2025)",
  "molecular_target": "T1, CRF1 receptor (Homo sapiens, UniProt P34998)",
  "T1 sequence (P34998 24-415)": "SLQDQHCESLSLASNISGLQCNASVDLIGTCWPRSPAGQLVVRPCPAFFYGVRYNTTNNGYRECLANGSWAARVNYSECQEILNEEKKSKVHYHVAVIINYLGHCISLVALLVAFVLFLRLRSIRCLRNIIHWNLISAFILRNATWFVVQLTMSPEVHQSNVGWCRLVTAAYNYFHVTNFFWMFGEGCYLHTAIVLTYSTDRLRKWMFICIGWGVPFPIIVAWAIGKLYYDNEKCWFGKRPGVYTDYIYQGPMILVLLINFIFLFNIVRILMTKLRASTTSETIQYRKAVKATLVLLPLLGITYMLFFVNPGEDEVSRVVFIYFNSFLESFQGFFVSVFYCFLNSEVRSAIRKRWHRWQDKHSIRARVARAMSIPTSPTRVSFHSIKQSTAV",
  "test": "CRF1 receptor antagonist activity: kinetically derived affinity (Ki = k-1/k1), procedures of Fleck et al.",
  "type": "binding",
  "conditions": "kinetically derived affinity calculated from association (k1) and dissociation (k-1) rate constants; read-out: kinetic Ki",
  "description": "As reported in Fleck et al. (J. Pharmacology and Experimental Therapeutics, 341(2):518-531, 2012) (hereinafter “Fleck et al.” and incorporated by reference in it's entirely) the activity of a CRF1 receptor antagonists may be expressed as the kinetically derived affinity (Ki) calculated from the association (k1) and dissociation (k−1) rate constants by the following equation: Ki=k−1/k1\nCompound 1 was evaluated according to these procedures, and the kinetic Ki was determined to be 1.14.",
  "data": [
    {"smiles": "C#CCN(c1nc(-c2cc(C)c(OC)cc2Cl)c(C)s1)C(CC1CC1)c1ccc(CO)c(F)c1", "note": "(racemic) [Compound 1, racemic {4-[1-{[4-(2-chloro-4-methoxy-5-methylphenyl)-5-methyl-1,3-thiazol-2-yl](prop-2-yn-1-yl)amino}-2-cyclopropylethyl]-2-fluorophenyl}methanol]", "values": [
      {"measurement": "Ki", "result": 1.14, "unit": "nM"}
    ]}
  ]
}
